Blank lines part the entries; values can stand above or below the molecule they belong to.
Legend:
human NAAA [1] = molecular target: T1, human NAAA (Homo sapiens, UniProt Q02083); test: h-NAAA inhibition, UPLC-MS-based assay; type: biochemical; conditions: for IC50: h–NAAA IC50 (μM) ± SD, LC/MS method, mean of three or more determinations
T1 sequence (Q02083 29-359): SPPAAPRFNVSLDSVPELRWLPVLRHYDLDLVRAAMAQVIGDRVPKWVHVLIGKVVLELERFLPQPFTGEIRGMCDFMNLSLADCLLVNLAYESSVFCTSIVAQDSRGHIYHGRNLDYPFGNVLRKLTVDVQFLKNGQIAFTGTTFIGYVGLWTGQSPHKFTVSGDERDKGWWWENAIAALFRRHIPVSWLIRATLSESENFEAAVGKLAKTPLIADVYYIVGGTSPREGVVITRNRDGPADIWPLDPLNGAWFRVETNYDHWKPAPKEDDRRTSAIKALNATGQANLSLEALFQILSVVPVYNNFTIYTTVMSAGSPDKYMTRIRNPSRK

human AC = molecular target: T2, human AC (Homo sapiens, UniProt Q13510); test: h-AC inhibition, UPLC-MS-based assay; type: biochemical; conditions: for IC50: h–AC IC50 (μM) ± SD, LC/MS method, mean of three or more determinations
T2 sequence (Q13510 22-395): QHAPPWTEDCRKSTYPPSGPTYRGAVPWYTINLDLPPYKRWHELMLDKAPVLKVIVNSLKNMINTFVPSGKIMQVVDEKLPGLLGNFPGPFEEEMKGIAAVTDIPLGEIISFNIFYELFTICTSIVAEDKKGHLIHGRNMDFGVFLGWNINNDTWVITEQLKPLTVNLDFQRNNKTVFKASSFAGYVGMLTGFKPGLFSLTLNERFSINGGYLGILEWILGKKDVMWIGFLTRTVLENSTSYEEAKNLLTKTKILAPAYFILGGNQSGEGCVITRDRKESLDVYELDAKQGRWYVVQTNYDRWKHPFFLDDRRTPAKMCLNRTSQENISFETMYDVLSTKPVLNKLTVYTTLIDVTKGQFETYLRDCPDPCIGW

human FAAH = molecular target: T3, human FAAH (Homo sapiens, UniProt O00519); test: h-FAAH inhibition; type: biochemical; conditions: read-out: h–FAAH (% Inhib)
T3 sequence (O00519 1-579): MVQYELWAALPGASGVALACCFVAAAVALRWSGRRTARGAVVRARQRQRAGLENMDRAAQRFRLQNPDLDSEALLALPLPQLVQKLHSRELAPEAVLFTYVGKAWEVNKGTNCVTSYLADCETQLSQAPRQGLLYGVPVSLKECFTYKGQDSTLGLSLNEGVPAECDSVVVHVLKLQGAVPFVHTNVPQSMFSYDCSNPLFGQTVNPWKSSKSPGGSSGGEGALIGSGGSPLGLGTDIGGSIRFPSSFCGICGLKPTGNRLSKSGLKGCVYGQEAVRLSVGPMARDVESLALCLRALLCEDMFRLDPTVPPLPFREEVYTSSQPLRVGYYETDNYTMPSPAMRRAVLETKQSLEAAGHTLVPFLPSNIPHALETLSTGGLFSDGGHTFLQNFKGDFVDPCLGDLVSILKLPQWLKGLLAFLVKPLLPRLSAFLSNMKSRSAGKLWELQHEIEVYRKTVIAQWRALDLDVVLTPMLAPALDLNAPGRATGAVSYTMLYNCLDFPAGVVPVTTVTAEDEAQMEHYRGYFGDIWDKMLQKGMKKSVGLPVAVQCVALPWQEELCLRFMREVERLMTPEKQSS

human NAAA [2] = molecular target: T4, human NAAA (Homo sapiens, UniProt Q02083); test: Fluorogenic h-NAAA assay; type: biochemical
T4 sequence (Q02083 126-359 limits assumed): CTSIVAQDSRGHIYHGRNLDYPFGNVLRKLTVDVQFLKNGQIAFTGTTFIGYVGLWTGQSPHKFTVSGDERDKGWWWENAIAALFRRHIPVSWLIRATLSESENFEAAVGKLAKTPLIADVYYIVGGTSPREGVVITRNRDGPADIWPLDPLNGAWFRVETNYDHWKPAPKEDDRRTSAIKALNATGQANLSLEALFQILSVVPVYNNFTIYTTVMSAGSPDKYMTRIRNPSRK
T4 sequence (Q02083 29-125 limits assumed): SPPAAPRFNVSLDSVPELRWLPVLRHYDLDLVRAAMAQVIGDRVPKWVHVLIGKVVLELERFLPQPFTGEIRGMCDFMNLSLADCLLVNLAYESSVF

[3] = In vitro mouse plasma stability; type: in vitro ADME
[4] = In vitro rat plasma stability; type: in vitro ADME
[5] = Plasma pharmacokinetics in rats after IV or oral dosing; type: in vivo; conditions: rat
rat-NAAA (r-NAAA) = conditions: read-out: r-NAAA IC50; ref 19a, 19c, 19d, 19f; cited from earlier work

SMILES: O=C(CCCCCCc1ccccc1)N[C@H]1CNC1=O [Compound 11e, 7–Phenyl–N–[(S)–2–oxoazetidin–3–yl]–heptanamide]
IC50 (human NAAA [2]): 0.6 ± 0.17 µM

SMILES: CCCCCCCC(=O)N[C@H]1CNC1=O [Compound 11g, N–[(S)–2–Oxoazetidin–3–yl]–octanamide]
IC50 (human NAAA [2]): 1.91 ± 0.28 µM

SMILES: O=C(CCCc1ccccc1)N[C@H]1CNC1=O [Compound 11b, N–[(S)–2-Oxoazetidin–3–yl]–4–phenyl–butanamide]
IC50 (human NAAA [2]): 73.4 ± 10.7 µM

SMILES: CCCCCCCCC(=O)N[C@H]1CNC1=O [Compound 11h, N–[(S)–2–Oxoazetidin–3–yl]–nonanamide]
IC50 (human NAAA [1]): 0.13 ± 0.03 µM
selectivity for NAAA vs. AC (human AC; h-AC IC50 / h-NAAA IC50, LC/MS assays): ca. 19 fold
IC50 (human AC): 2.53 ± 0.06 µM
inhibition at 100 µM (human FAAH): < 10%
half-life at 2 µM [3]: 1.72 h
half-life at […] [4]: > 2 h
AUC ([5]; iv, 3 mg/kg): 111 ng·h/mL
Cmax ([5]; iv, 3 mg/kg): 397 ng/mL
Tmax ([5]; iv, 3 mg/kg): 4.8 min
clearance ([5]; iv, 3 mg/kg): 702 mL/min/kg
AUC ([5]; po, 10 mg/kg): 247 ng·h/mL
Cmax ([5]; po, 10 mg/kg): 570 ng/mL

SMILES: C[C@@H]1OC(=O)[C@@H]1NC(=O)OCCCCCc1ccccc1 [Compound 2, 5–phenylpentyl N–[(2S,3R)–2–methyl–4–oxo–oxetan–3–yl]carbamate, reference compound]
IC50 (human NAAA [2]): 0.047 ± 0.005 µM
IC50 (rat-NAAA (r-NAAA)): 0.05 µM

SMILES: CCCCCCC(=O)N[C@H]1CNC1=O [Compound 11f, N–[(S)–2–Oxoazetidin–3–yl]–heptanamide]
IC50 (human NAAA [2]): 27 ± 6.15 µM
drop in potency (h-NAAA) compared to 11e (human NAAA [2]; fluorogenic assay): > 40 fold

SMILES: O=C(CCCCc1ccccc1)N[C@H]1CNC1=O [Compound 11c, 5–Phenyl–N–[(S)–2–oxoazetidin–3–yl]–pentanamide]
IC50 (human NAAA [2]): 27.2 ± 1.89 µM

SMILES: O=C(CCc1ccccc1)N[C@H]1COC1=O [Compound 1, (S)–N–(2–oxo–3–oxetanyl)–3–phenylpropionamide, reference compound]
IC50 (human NAAA [2]): 1.29 µM
half-life at 2 µM [3]: < 0.0167 h
IC50 (rat-NAAA (r-NAAA)): 0.42 µM

SMILES: O=C(CCc1ccccc1)N[C@H]1CNC1=O [Compound 11a, 3–Phenyl–N–[(S)–2-oxoazetidin–3–yl]–propanamide]
half-life at 2 µM [3]: > 2 h
half-life at […] [4]: > 2 h

SMILES: O=C(CCCCCc1ccccc1)N[C@H]1CNC1=O [Compound 11d, N–[(S)–2–Oxoazetidin–3–yl]–6–phenyl–hexanamide]
IC50 (human NAAA [2]): 12.1 ± 2.18 µM

Continued, values first:

increase in potency toward h–NAAA compared to 11h (human NAAA [1]; LC/MS assay): ca. 2 fold
IC50 (human NAAA [1]): 0.056 ± 0.01 µM
increase in potency toward h–AC compared to 11h (human AC; LC/MS assay): ca. 7 fold
IC50 (human AC): 0.33 ± 0.1 µM
inhibition at 100 µM (human FAAH): < 10%
SMILES: CCCCCCCCCCC(=O)N[C@H]1CNC1=O [Compound 11p, N–[(S)–2–Oxoazetidin–3–yl]–undecanamide]

IC50 (human NAAA [2]): 3.09 ± 0.5 µM
loss/drop in potency (h-NAAA) compared to 11h (human NAAA [2]; fluorogenic assay): 10 fold
SMILES: CCCCC/C=C/CC(=O)N[C@H]1CNC1=O [Compound 11i, (E)–N–[(S)–2–Oxoazetidin–3–yl]–non–3–enamide]

IC50 (human NAAA [2]): 74.5 ± 9.08 µM
loss/drop in potency (h-NAAA) compared to 11h (human NAAA [2]; fluorogenic assay): > 200 fold
IC50 (human NAAA [1]): 45.5 µM
IC50 (human AC): 27.8 µM
inhibition at 100 µM (human FAAH): < 10%
SMILES: CCCCCCCCC(=O)N[C@@H]1CNC1=O [Compound 12h, N–[(R)–2–Oxoazetidin–3–yl]–nonanamide]

IC50 (human NAAA [2]): 13.8 ± 3.41 µM
SMILES: CCCCc1ccc(C(=O)N[C@H]2CNC2=O)cc1 [Compound 11k, 4–Butyl–N–[(S)–2–oxoazetidin–3–yl]–benzamide]

IC50 (human NAAA [2]): 5.76 ± 0.9 µM
SMILES: CCCCCCCNC(=O)N[C@H]1CNC1=O [Compound 33, 1–Heptyl–3–[(S)–2–oxoazetidin–3–yl]–urea]

IC50 (human NAAA [2]): 3.9 ± 0.86 µM
loss/drop in potency (h-NAAA) compared to 11h (human NAAA [2]; fluorogenic assay): 10 fold
SMILES: CCCCC/C=C\CC(=O)N[C@H]1CNC1=O [Compound 11j, (Z)–N–[(S)–2–Oxoazetidin–3–yl]–non–3–enamide]
